Where two headings read alike, the source gives them in different places.
Tests used:
HCV genotype 1b replicon = assay: HCV replicon assay; format: cell-based
Experimental: Huh-7-derived cell line (Zluc) that harbors an HCV genotype 1b replicon and a luciferase reporter gene was grown in Dulbecco's Modified Eagle Medium (DMEM) supplemented with 10% fetal bovine serum, 2 mM GlutaMAX, 1% MEM nonessential amino acids, 100 IU/mL penicillin, 100 μg/mL streptomycin, and 0.5 mg/mL Geneticin® (G418). For dose response testing the cells were seeded in 96-well plates at 7.5×10^3 cells per well in a volume of 50 μL, and incubated at 37° C./5% CO2. Drug solutions were made up freshly in Huh-7 media as 2× stocks. Ten additional 5-fold dilutions were prepared from these stocks in DMEM without G418. At least three hours after Zluc cells were seeded, drug treatment was initiated by adding 50 μL of drug dilutions to the plates in duplicate. Final concentrations of drug ranged from 100 μM to […]. Cells were then incubated at 37° C./5% CO2. Alternatively, compounds were tested at two concentrations (1 μM and 10 μM). […] For this, media was removed from the plates via gentle tapping. Fifty microliters of ONE-glo luciferase assay reagent was added to each well. The plates were shaken gently for 3 min at room temperature and luminescence was measured on a Victor^3 V 1420 multilabel counter (Perkin Elmer) with a 1 second read time using a 700 nm cut-off filter. The EC50 values were calculated from dose response curves from the resulting best-fit equations determined by Microsoft Excel and XLfit 4.1 software. When screening at two fixed concentrations, the results were expressed as % inhibition at 1 μM and 10 μM.

[1] = Cytotoxicity evaluation in Zluc cells (CellTiter-Blue); format: cell-based, human; conditions: human, read-out: HCV Replicon CC50
Experimental: For cytotoxicity evaluation, Zluc cells were treated with compound as described herein, and cell viability was monitored using the CellTiter-Blue Cell Viability Assay (Promega) by adding 20 μL of the assay solution to each well. The plates were then incubated at 37° C./5% CO2 for at least 3 hours.

fresh mouse hepatocyte = assay: Release of active metabolite in primary hepatocytes (mouse); format: in vitro ADME; conditions: 10 μM
Experimental: Plates of fresh human and mouse hepatocytes were obtained on ice. The medium was removed and replaced with hepatocyte culture medium (William's E supplemented with penicillin-streptomycin, 1% L-glutamine, 1% insulin-transferrin-selenium and 0.1 μM Dexamethasone (Invitrogen) or with Invitro GRO HI medium complemented with Torpedo antibiotics (Celsis)). Cells were left overnight in an incubator at 37° C. to acclimatize to culture and the medium.
Hepatocyte incubations were conducted at a final volume of 0.5 mL hepatocyte culture medium/well (0.8 million cells/well for human and 0.5 million cells/well for mouse; 12 well plate no overlay, collagen coat). Culture medium from overnight incubation of cells was removed and replaced with fresh medium, pre-warmed to 37° C., containing 10 μM of test compound from a stock solution in DMSO (final DMSO concentration was 0.1%). At each specific time point, incubation medium was removed and cell monolayers were carefully washed two times with ice-cold PBS. Following the last wash, all PBS was carefully removed and 1.0 mL of extraction solution (ice-cold 70% methanol/30% water) added. Cells were scraped off and suspended in the extraction solution, transferred to 2 mL polypropylene microfuge tubes and intracellular contents extracted overnight at −20° C.
After the overnight treatment the cellular extracts were prepared by centrifugation at 16,000×g for 10 min to remove cellular debris. The remaining sample was then dried using a refrigerated centrivap concentrator. Dry extracts were reconstituted in 1000 μL of HPLC-grade water and centrifuged at 16,000×g for 10 min. Aliquots (100 μL each) of the supernatant were transferred into a 96 well plate and internal standard (4 ng/mL final concentration) was added as the internal standard (IS) for LC-MS/MS analysis.
The incubation time points were 6, 24 and 48 hours for human hepatocytes and 1, 4, 8, 12 and 24 hours for mouse hepatocytes.

Huh-7 cells = assay: Release of active metabolite in Huh-7 cells; format: in vitro ADME, human; conditions: Table 7
Experimental: Huh-7 cells were plated in 1 mL culture medium (DMEM, containing glucose, L-glutamine and sodium pyruvate, 10% FBS, 100 IU/mL penicillin, 100 μg/mL streptomycin, 2 mM GlutaMAX, 1% MEM non-essential amino acids) at the concentration 0.8, 0.4 and 0.2 million cells per well on 6 well plates for 24, 48 and 72 hr treatment, respectively. Plated cells were incubated overnight at 37° C. in an incubator.
The following morning test compound was diluted to 20 μM from a stock solution in DMSO in fresh culture medium pre-warmed to 37° C. and 1 mL of the solution/well was added to cells. A final medium volume per well was 2.0 mL, test compound concentration in well was 10 μM and final DMSO concentration was 0.1%.
After 24, 48 or 72 hr, the medium was carefully removed and cell monolayers were washed twice with 2 mL ice-cold PBS per well. Following the last wash, all PBS was carefully removed and 1.0 mL of extraction solution (ice-cold 70% methanol) added. The plate was tightly covered with Parafilm, plastic plate cover and Parafilm again and an intracellular content was extracted at −20° C. for 24 hr.
After 24 hr the extracts were transferred into polypropylene microfuge tubes and dry on a refrigerated centrivap concentrator. Dry residues were reconstituted in 250 μL of HPLC-grade water and centrifuged at 16,000×g for 10 min. Aliquots (100 μL each) of the supernatants were transferred into a 96 well plate and internal standard (4 ng/mL final concentration) was added as the internal standard (IS) for LC-MS/MS analysis.

cathepsin A (CatA) = target: T1, cathepsin A (CatA) (Homo sapiens, UniProt P10619); assay: Hydrolysis of prodrugs by Cathepsin A; format: in vitro ADME; conditions: time not given; 100 μM compound, 37° C., pH 6.0
T1 sequence (P10619 29-326 limits assumed): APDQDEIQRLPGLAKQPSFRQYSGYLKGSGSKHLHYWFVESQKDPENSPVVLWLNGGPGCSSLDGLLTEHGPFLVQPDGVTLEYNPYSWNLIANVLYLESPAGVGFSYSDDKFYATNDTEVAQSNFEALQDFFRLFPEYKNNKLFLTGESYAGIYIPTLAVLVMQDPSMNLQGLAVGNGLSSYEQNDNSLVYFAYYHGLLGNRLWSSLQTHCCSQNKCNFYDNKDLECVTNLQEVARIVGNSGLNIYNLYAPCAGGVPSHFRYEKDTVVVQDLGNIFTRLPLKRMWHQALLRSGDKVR
T1 sequence (P10619 327-480 limits assumed): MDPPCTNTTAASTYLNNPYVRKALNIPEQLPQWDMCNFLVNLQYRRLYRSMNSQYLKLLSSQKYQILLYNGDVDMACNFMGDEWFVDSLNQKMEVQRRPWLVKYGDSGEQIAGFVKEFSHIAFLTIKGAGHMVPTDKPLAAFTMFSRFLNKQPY
Experimental: CatA, cathepsin L (CatL) and CES1 were purchased from R & D Systems (Minneapolis, Minn.). Prior to the enzymatic hydrolysis reactions, CatA was activated according to the manufacturer's instruction. Briefly, CatA (0.05 μg/μL) was incubated with CatL (0.005 μg/μL) for 30 min at 37° C. in 25 mM MES pH 6.0 containing 5 mM DTT. The reaction was stopped by addition of the CatL specific inhibitor E64 (10 μM).
The CatA assay was performed at 37° C. The reaction mixture contained 25 mM MES buffer pH 6.0, 100 mM NaCl, 4 mM DTT and 100 μM of the compound. The reaction was started by addition of the activated CatA enzyme to a final concentration of 0.005 μg/μL. […] Reactions were stopped by mixing the sample with an equal volume of ice-cold methanol, and were loaded on a HPLC for analysis.

[2] = target: T2, carboxylesterase 1 (CES1) (Homo sapiens, UniProt P23141); assay: Hydrolysis of prodrugs by Carboxylesterase 1; format: in vitro ADME; conditions: for CES1 hydrolysis: 100 μM compound, 37° C., pH 7.5
T2 construct: purchased R & D Systems (Minneapolis, Minn.)
T2 sequence (P23141 18-567): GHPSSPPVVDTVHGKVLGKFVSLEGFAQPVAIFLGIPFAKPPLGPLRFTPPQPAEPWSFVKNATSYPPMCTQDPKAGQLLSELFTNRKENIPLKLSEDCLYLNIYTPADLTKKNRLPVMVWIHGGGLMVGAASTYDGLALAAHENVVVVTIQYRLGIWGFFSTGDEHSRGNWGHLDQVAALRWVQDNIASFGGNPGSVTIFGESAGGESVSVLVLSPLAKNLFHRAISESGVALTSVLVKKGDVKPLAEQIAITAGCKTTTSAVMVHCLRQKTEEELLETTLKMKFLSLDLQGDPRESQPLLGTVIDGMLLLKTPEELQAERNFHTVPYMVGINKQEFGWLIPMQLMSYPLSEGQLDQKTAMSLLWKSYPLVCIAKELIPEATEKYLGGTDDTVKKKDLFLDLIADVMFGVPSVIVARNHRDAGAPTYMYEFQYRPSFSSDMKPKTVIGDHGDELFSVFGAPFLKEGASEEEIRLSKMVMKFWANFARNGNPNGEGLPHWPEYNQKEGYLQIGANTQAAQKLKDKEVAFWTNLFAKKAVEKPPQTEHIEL
Experimental: CES1 assay was performed at 37° C. in the reaction mixture containing 50 mM Tris/HCl buffer pH 7.5 and 100 μM of the compound. Reaction was started by addition of the CES1 to the final concentration 0.01 μg/mL. 100 μL aliquots were taken after 0.5 min, 3 hrs and 21 hrs of the incubation and the reaction was stopped by mixing with 100 μl of the ice-cold methanol prior to HPLC analysis.
Samples were analyzed by HPLC using 5 μC-18, 4.6×250 mm Phenomenex® Columbus column (Phenomenex USA, Calif.). The mobile phase consisted of buffer A (25 mM potassium phosphate with 5 mM tetrabutylammonium dihydrogen phosphate pH 6.3) and buffer B (100% methanol).

[3] = Liver TP formation and liver targeting in vivo (Example 6, Table 7); set-up: species or system mice and monkey
Description: The in vitro antiviral inactivity of Z4 and Z2 is thought to reflect an inability of Huh-7 replicon cells to metabolize the prodrug moiety.

[4] = Plasma nucleoside and liver triphosphate PK after single oral dose (Example 4); format: in vivo, CD-1 mice; conditions: at 1 μmol/kg, single oral dose 10 mg/kg in PEG 200
Experimental: Plasma samples were analyzed for nucleoside by LC-MS/MS. The internal standard (IS) was either 2′-MeG-D3 or tiapride. For protein precipitation and extraction, each plasma sample (50 μL) was treated with 500 μL of 0.2% formic acid in acetonitrile and 20 μL of the internal standard working solution. After vortexing and centrifugation, 500 μL of the sample extracts were transferred to a new plate, dried under N2 at ˜28° C. and reconstituted with 75 μL of 0.2% FA in water. The extracts were chromatographed on an Aquasil C18 column using a gradient system of 0.2% formic acid in water and acetonitrile. The analytes were detected and quantified by tandem mass spectrometry in positive ion mode on an MDS Sciex API5000 equipped with a Turbo Ionspray® interface. The calibration range was 0.500 (LLOQ) to 200 ng/mL in mouse plasma.
Internal standard solution was added to the homogenate followed by neutralization with 20% ammonium hydroxide solution and addition of 500 μL 1% formic acid. The tissue samples were extracted by weak anion exchange solid phase extraction (SPE). Post extraction, the eluates were evaporated under nitrogen, followed by reconstitution before injection onto the LC-MS/MS system.

[5] = Hepatitis C virus, 72 h, Zluc (Huh-7-derived) cells, luciferase reporter, 72 hours, read-out: HCV Replicon EC50
[6] = Hepatitis C virus, Huh-7, read-out: EC50 (replicon reproduction), genotype 1b HCV replicon-bearing human hepatoma cell line (Huh-7)

## CC(C)OC(=O)[C@@H](C)NP(=O)(OC[C@H]1O[C@@H](n2ccc(=O)[nH]c2=O)[C@](C)(Cl)[C@@H]1O)Oc1ccccc1 (single isomer, unassigned) [40i Diastereomer 1]
HCV genotype 1b replicon; [5]
  EC50: > 10 µM
[1]
  CC50: > 50 µM
Fresh mouse hepatocyte
  MsH AUC: 4052 pmol.hr/mill cells
  MsH Cmax: 198 pmol/mill cells

## CCOc1nc(N)nc2c1ncn2[C@@H]1O[C@H](COP(=O)(N[C@H](C)C(=O)OC(C)C)Oc2ccccc2)C[C@@]1(C)F (single isomer, unassigned) [502a Diastereomer 1]
HCV genotype 1b replicon; [5]
  EC50: 1 to 10 µM
[1]
  CC50: < 50 µM

## CC(C)OC(=O)[C@@H](C)NP(=O)(OC[C@H]1O[C@@H](n2ccc(=O)[nH]c2=O)[C@](C)(Cl)[C@@H]1O)Oc1ccccc1 (single isomer, unassigned) [Compound 40i Diastereomer 1]
HCV genotype 1b replicon; [6]
  EC50: > 50 µM
Huh-7 cells
  Huh-7 AUC0-72: 436.9 pmol*hr/10^6cells
Cathepsin A (CatA)
  CatA hydrolysis: 0%
[2]
  Hydrolysis by CES1: processed
[2]; 3 h
  CES1 hydrolysis: 23% @
[2]; 21 h
  CES1 hydrolysis: 3 h; 49%
[3]
  Liver:plasma ratio of drug metabolites: high liver:plasma ratio of drug metabolites

## CC(C)OC(=O)[C@@H](C)NP(=O)(OC[C@H]1O[C@@H](n2ccc(=O)[nH]c2=O)[C@](C)(Cl)[C@@H]1O)Oc1ccccc1 (single isomer, unassigned; diastereomer 2) [40i Diastereomer 2]
Fresh mouse hepatocyte
  MsH AUC: 1073 pmol.hr/mill cells
  MsH Cmax: 89 pmol/mill cells
[4]
  Ms Plasma nucleoside AUC: 0.0036 M·s
[4]; read-out: Ms Plasma nucleoside Cmax
  Cmax: 64 nM

## CC(C)OC(=O)[C@@H](C)NP(=O)(OC[C@H]1O[C@@H](n2ccc(=O)[nH]c2=O)[C@](C)(Cl)[C@@H]1O)Oc1ccccc1 (single isomer, unassigned; diastereomer 2) [Compound 40i Diastereomer 2]
HCV genotype 1b replicon; Table 7, read-out: EC50
  EC50: 7 µM
Cathepsin A (CatA)
  CatA hydrolysis: 0%
[2]; 21 h
  CES1 hydrolysis: 4.5% @
[3]
  Liver TP: 4400 pmol·h/g

## CC(C)OC(=O)[C@@H](C)N[P@@](=O)(OC[C@H]1O[C@@H](n2ccc(=O)[nH]c2=O)[C@](C)(F)[C@@H]1O)Oc1ccccc1 [Compound (804a) Ia (RP isomer), D-Alanine, N—((RP,2′R)-2′-deoxy-2′-fluoro-2′-methyl-P-phenyl-5′-uridylyl)-, 1-methylethyl ester]
HCV genotype 1b replicon; [6]
  EC50: > 50 µM
HCV genotype 1b replicon; Hepatitis C virus, Table 7, read-out: EC50
  EC50: > 50 µM
Huh-7 cells
  Huh-7 AUC0-72: 720.4 pmol*hr/10^6cells
Cathepsin A (CatA)
  CatA hydrolysis: 0%
[2]
  Hydrolysis by CES1: processed
[2]; 3 h
  CES1 hydrolysis: 10% @
[2]; 21 h
  CES1 hydrolysis: 3 h; 26%
[3]
  Liver:plasma ratio of drug metabolites: high liver:plasma ratio of drug metabolites

Source: patent US10717758B2, “D-amino acid compounds for liver disease” (priority 2012, dated 2020)
